# Assay results reported in EP0377642B1, “HERBICIDES FOR WEED CONTROL IN RICE” (E.I. DU PONT DE NEMOURS AND COMPANY, priority 1987, dated 1989).
# Legend:
# Type in all cases: in vivo
# Sphenoclea zeylanica [1] = assay: Herbicidal efficacy with Bensulfuron methyl and 2,4-D in Thailand (Table 19); details: 13 days after treatment
# Excerpt: (§1) Methyl 2-[[[[(4-methoxy-6-methyl-1,3,5-triazin-2-yl)amino]carbonyl]amino]sulfonyl]benzoate (Compound 1) and mixtures thereof with other compounds were applied as a spray (using a hand sprayer) to rice (either transplanted or direct seeded) in several rice growing areas in Southeast Asia and in the U.S. Tables 1-28 contain the results of these tests and clearly exemplify the utility of this invention. The details of each application are included in the appropriate table. [drawing 2]
# Cuperus difformis = assay: as above; details: 13 days after treatment
# Excerpt: as §1
# rice = assay: as above; details: 13 days after treatment
# Excerpt: as §1
# Cyperus iria [2] = assay: Field test applied at 25 DAS in direct seeded rice (Table 13); details: scale 0-10
# Excerpt: as §1
# Sphenoclea zeylanica [3] = assay: as above; details: scale 0-10
# Excerpt: as §1
# WEED [4] = assay: Effects in combination with Bensulfuron Methyl and Thiobencarb or Pretilachlor on weed control (Table 24); details: rate 25 g ai/ha, scale 0 to 10, treated at 1.0 leaf stage, evaluated four weeks later
# Excerpt: as §1
# [5] = test system: Barnyardgrass (Echinochloa crus-galli); assay: Field test applied 7 DAS in direct seeded rice in the Philippines, cover (Table 14); details: 47 DAA
# Excerpt: as §1
# SEDGE = assay: as above; details: 47 DAA
# Excerpt: as §1
# direct seeded rice [6] = assay: Field test applied 7 DAS in direct seeded rice in the Philippines, phytotoxicity (Table 14); details: 30 DAA
# Excerpt: as §1
# Marsilea crenata = assay: Field test with Bensulfuron methyl in direct seeded rice (Table 10); details: 10 = complete control
# Excerpt: as §1
# Cyperus iria [7] = assay: as above; details: 10 = complete control
# Excerpt: as §1
# Sphenoclea zeylanica [8] = assay: as above; details: 10 = complete control
# Excerpt: as §1
# WEED [9] = assay: Field test applied 7 DAS in direct seeded rice in the Philippines, weed cover (Table 14); details: 47 DAA
# Excerpt: as §1
# Cyperus difformis = assay: Field test applied at 7 DAS in direct seeded rice (Table 11); details: scale 0-10
# Excerpt: as §1
# Sphenoclea zeylanica [10] = assay: as above; details: scale 0-10
# Excerpt: as §1
# direct seeded rice [11] = assay: Field test with Bensulfuron methyl in direct seeded rice, yield (Table 10)
# Excerpt: as §1
# WEED [12] = assay: Effects in combination with Bensulfuron Methyl and Thiobencarb or Pretilachlor on weed control (Table 25); details: rate 25 g ai/ha, scale 0 to 10, treated at 2.0 leaf stage, evaluated four weeks later
# Excerpt: as §1
smiles,measurement,setting,value
"COC(=O)c1ccccc1CS(=O)(=O)NC(=O)Nc1nc(OC)cc(OC)n1 [Bensulfuron methyl, methyl 2-[[[[[(4,6-dimethoxy-2-pyrimidinyl)amino]carbonyl]amino]sulfonyl]methyl]benzoate]",% CONTROL OR INJURY SZ,Sphenoclea zeylanica [1]; 10 GAI/HA,88%
same,% CONTROL OR INJURY SZ,Sphenoclea zeylanica [1]; 15 GAI/HA,100%
same,% CONTROL OR INJURY SZ,Sphenoclea zeylanica [1]; 20 GAI/HA,100%
same,% CONTROL OR INJURY CD,Cuperus difformis; 10 GAI/HA,100%
same,% CONTROL OR INJURY CD,Cuperus difformis; 15 GAI/HA,100%
same,% CONTROL OR INJURY CD,Cuperus difformis; 20 GAI/HA,100%
same,% CONTROL OR INJURY RICE,rice; 10 GAI/HA,0%
same,% CONTROL OR INJURY RICE,rice; 15 GAI/HA,0%
same,% CONTROL OR INJURY RICE,rice; 20 GAI/HA,0%
same,WEED CONTROL at 6 WAA CI,Cyperus iria [2]; 10 GM.A.I./HA,9.67
same,WEED CONTROL at 6 WAA CI,Cyperus iria [2]; 15 GM.A.I./HA,9.83
same,WEED CONTROL at 6 WAA CI,Cyperus iria [2]; 20 GM.A.I./HA,10
same,WEED CONTROL at 6 WAA CI,Cyperus iria [2]; 30 GM.A.I./HA,10
same,WEED CONTROL at 6 WAA SZ,Sphenoclea zeylanica [3]; 10 GM.A.I./HA,9.17
same,WEED CONTROL at 6 WAA SZ,Sphenoclea zeylanica [3]; 15 GM.A.I./HA,9.80
same,WEED CONTROL at 6 WAA SZ,Sphenoclea zeylanica [3]; 20 GM.A.I./HA,9.50
same,WEED CONTROL at 6 WAA SZ,Sphenoclea zeylanica [3]; 30 GM.A.I./HA,9.93
same,WEED CONTROL RATINGS CD,WEED [4]; Cyperus difformis,1
same,WEED CONTROL RATINGS CS,WEED [4]; Cyperus serotinus,6
same,WEED CONTROL RATINGS EO,WEED [4]; Echinochloa oryzicola,1
same,WEED CONTROL RATINGS BL,WEED [4]; Lindernia pyxidaria,10
same,WEED CONTROL RATINGS MV,WEED [4]; Monochoria vaginalis,10
same,WEED CONTROL RATINGS SP,WEED [4]; Sagittaria pygmaea,8.5
same,WEED CONTROL RATINGS SJ,WEED [4]; Scirpus juncoides,5
same,% BYG COVER,[5]; 8.25 G AI/HA,29%
same,% BYG COVER,[5]; 12.0 G AI/HA,17%
same,% BYG COVER,[5]; 16.50 G AI/HA,28%
same,% SEDGE COVER,SEDGE; 8.25 G AI/HA,4%
same,% SEDGE COVER,SEDGE; 12.0 G AI/HA,2%
same,% SEDGE COVER,SEDGE; 16.50 G AI/HA,2%
same,PHYTO (1-9),direct seeded rice [6]; 8.25 G AI/HA,1.3
same,PHYTO (1-9),direct seeded rice [6]; 12.0 G AI/HA,1
same,PHYTO (1-9),direct seeded rice [6]; 16.50 G AI/HA,1.7
same,WEEDS CONTROL at 4 WAA MC,Marsilea crenata; 10 GAI/HA,0
same,WEEDS CONTROL at 4 WAA MC,Marsilea crenata; 20 GAI/HA,3.33
same,WEEDS CONTROL at 4 WAA CI,Cyperus iria [7]; 10 GAI/HA,2
same,WEEDS CONTROL at 4 WAA CI,Cyperus iria [7]; 20 GAI/HA,8
same,WEEDS CONTROL at 4 WAA SZ,Sphenoclea zeylanica [8]; 10 GAI/HA,0
same,WEEDS CONTROL at 4 WAA SZ,Sphenoclea zeylanica [8]; 20 GAI/HA,6
same,% WEED COVER,WEED [9]; 8.25 G AI/HA,29%
same,% WEED COVER,WEED [9]; 12.0 G AI/HA,20%
same,% WEED COVER,WEED [9]; 16.50 G AI/HA,28%
same,WEED CONTROL at 6 WAA CD,Cyperus difformis; 10 GM.A.I./HA,10
same,WEED CONTROL at 6 WAA CD,Cyperus difformis; 15 GM.A.I./HA,10
same,WEED CONTROL at 6 WAA CD,Cyperus difformis; 20 GM.A.I./HA,10
same,WEED CONTROL at 6 WAA CD,Cyperus difformis; 30 GM.A.I./HA,10
same,WEED CONTROL at 6 WAA SZ,Sphenoclea zeylanica [10]; 10 GM.A.I./HA,10
same,WEED CONTROL at 6 WAA SZ,Sphenoclea zeylanica [10]; 15 GM.A.I./HA,10
same,WEED CONTROL at 6 WAA SZ,Sphenoclea zeylanica [10]; 20 GM.A.I./HA,10
same,WEED CONTROL at 6 WAA SZ,Sphenoclea zeylanica [10]; 30 GM.A.I./HA,10
same,YIELD,direct seeded rice [11]; 10 GAI/HA,3.04 TONS/HA
same,YIELD,direct seeded rice [11]; 20 GAI/HA,3.34 TONS/HA
same,WEED CONTROL RATINGS CD,WEED [12]; Cyperus difformis,10
same,WEED CONTROL RATINGS CS,WEED [12]; Cyperus serotinus,2
same,WEED CONTROL RATINGS EO,WEED [12]; Echinochloa oryzicola,1
same,WEED CONTROL RATINGS BL,WEED [12]; Lindernia pyxidaria,9
same,WEED CONTROL RATINGS MV,WEED [12]; Monochoria vaginalis,9
same,WEED CONTROL RATINGS SP,WEED [12]; Sagittaria pygmaea,8
same,WEED CONTROL RATINGS SJ,WEED [12]; Scirpus juncoides,5
